Experimental data taken from patent US20110237599A1, “HETEROCYCLIC INHIBITORS OF HISTAMINE RECEPTORS FOR THE TREATMENT OF DISEASE” (Kalypsys, Inc., priority 2010, published 2011).

Assays:
human H1 = target: T1, human H1 (Homo sapiens, UniProt P35367); experiment: In vitro histamine receptor cell-based assay (aequorin bioluminescence), H1 antagonism; details: CHO-K1 cells expressing human H1 and aequorin; histamine at EC80; read-out: H1 Antagonist EC50
T1 construct: host or cells: CHO-K1
Protocol: (§1) The cell-based assays utilize an aequorin dependent bioluminescence signal. Doubly-transfected, stable CHO-K1 cell lines expressing human H1 or H4, mitochondrion-targeted aequorin, and (H4 only) human G protein Gα16 are obtained from Perkin-Elmer. Cells are maintained in F12 (Ham's) growth medium, containing 10% (vol./vol.) fetal bovine serum, penicillin (100 IU/mL), streptomycin (0.1 mg/mL), zeocin (0.25 mg/mL) and geneticin (0.40 mg/mL). Cell media components are from Invitrogen, Inc. One day prior to assay, the growth medium is replaced with the same, excluding zeocin and geneticin.
(§2) For assay preparation, growth medium is aspirated, and cells are rinsed with calcium-free, magnesium-free phosphate-buffered saline, followed by two to three minute incubation in Versene (Invitrogen, Inc.) at 37° C. Assay medium (DMEM:F12 [50:50], phenol-red free, containing 1 mg/mL protease-free bovine serum albumin) is added to collect the released cells, which are then centrifuged. The cell pellet is re-suspended in assay medium, centrifuged once more, and re-suspended in assay medium to a final density of 5×10^6 cells/mL. Coelenterazine-h dye (500 μM in ethanol) is added to a final concentration of 5 μM, and mixed immediately. The conical tube containing the cells is then wrapped with foil to protect the light-sensitive dye. The cells are incubated for four hours further at room temperature (approximately 21° C.) with end-over-end rotation to keep them in suspension.
(§3) Just before assay, the dye-loaded cells are diluted to 0.75×10^6 cells/mL (H1 receptor) or 1.5×10^6 cells/mL (H4 receptor) with additional assay medium. Cells are dispensed to 1536 well micro-titer plates at 3 μL/well. To assay receptor antagonism, 60 nl of 100× concentration test compounds in 100% dimethyl sulfoxide (DMSO) are dispensed to the wells, one compound per well, by passive pin transfer, and the plates are incubated for 15 minutes at room temperature. Assay plates are then transferred to a Lumilux bioluminescence plate reader (Perkin-Elmer) equipped with an automated 1536 disposable tip pipette. The pipette dispenses 3 μL/well of agonist (histamine, at twice the final concentration, where final concentration is a previously determined EC80) in assay medium, with concurrent bioluminescence detection. […]
(§4) CCD image capture on the Lumilux includes a 5 second baseline read prior to agonist addition, and generally a 40 second read per plate after agonist addition. A decrease in bioluminescence signal (measured either as area-under-the-curve, or maximum signal amplitude minus minimum signal amplitude) correlates with receptor antagonism in a dose dependent manner. […] Efficacy is measured as a percentage of positive control activity.

human H4 = target: T2, human H4 (Homo sapiens, UniProt Q9H3N8); experiment: In vitro histamine receptor cell-based assay (aequorin bioluminescence), H4 antagonism; details: CHO-K1 cells expressing human H4, aequorin and Gα16; histamine at EC80; read-out: H4 Antagonist EC50
T2 construct: host or cells: CHO-K1
Protocol: as §1, §2, §3, §4

T2 sequence (Q9H3N8 whole entry): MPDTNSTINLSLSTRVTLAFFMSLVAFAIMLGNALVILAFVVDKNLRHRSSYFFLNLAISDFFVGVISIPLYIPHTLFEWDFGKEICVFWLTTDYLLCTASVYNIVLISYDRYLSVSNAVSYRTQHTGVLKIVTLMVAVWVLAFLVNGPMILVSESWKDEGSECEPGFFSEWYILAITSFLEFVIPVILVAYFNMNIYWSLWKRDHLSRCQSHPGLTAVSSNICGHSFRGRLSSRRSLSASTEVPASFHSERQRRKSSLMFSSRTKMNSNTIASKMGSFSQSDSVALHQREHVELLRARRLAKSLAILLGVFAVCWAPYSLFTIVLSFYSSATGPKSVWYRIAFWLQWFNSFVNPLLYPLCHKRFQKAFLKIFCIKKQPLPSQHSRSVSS
T1 sequence (P35367 whole entry): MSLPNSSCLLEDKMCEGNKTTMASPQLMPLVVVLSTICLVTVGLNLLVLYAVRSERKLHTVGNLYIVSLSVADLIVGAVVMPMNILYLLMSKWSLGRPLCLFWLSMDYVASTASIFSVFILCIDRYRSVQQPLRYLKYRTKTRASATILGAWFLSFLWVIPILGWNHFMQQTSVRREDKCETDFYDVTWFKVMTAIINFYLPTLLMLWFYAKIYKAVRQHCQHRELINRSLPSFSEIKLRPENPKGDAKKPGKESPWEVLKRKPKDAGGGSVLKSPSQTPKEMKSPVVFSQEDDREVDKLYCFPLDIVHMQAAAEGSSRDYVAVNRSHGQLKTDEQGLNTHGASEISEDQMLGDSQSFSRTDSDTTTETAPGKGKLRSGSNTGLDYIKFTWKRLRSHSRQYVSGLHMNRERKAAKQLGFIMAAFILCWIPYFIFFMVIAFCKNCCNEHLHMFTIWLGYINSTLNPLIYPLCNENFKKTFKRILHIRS

| SMILES | EC50 (human H1) [µM] | EC50 (human H4) [µM] |
| --- | --- | --- |
| Cc1nc2c3cc(Cl)sc3nc(N3CCN(C)CC3)n2n1 [Example 1, 8-chloro-2-methyl-5-(4-methylpiperazin-1-yl)thieno[3,2-e][1,2,4]triazolo[1,5-c]pyrimidine] | > 10 | ≤ 10 |
| Cc1nc2c3cc(Cl)sc3nc(N3CCNCC3)n2n1 [Example 2, 8-chloro-2-methyl-5-(piperazin-1-yl)thieno[3,2-e][1,2,4]-triazolo[1,5-c]pyrimidine] | > 10 | ≤ 10 |
| Cc1nc2c3sc(Cl)cc3nc(N3CCN(C)CC3)n2n1 [Example 3, 8-chloro-2-methyl-5-(4-methylpiperazin-1-yl)thieno[2,3-e][1,2,4]triazolo[1,5-c]pyrimidine] | > 10 | ≤ 10 |
| Cc1nc2c3sc(Cl)cc3nc(N3CCNCC3)n2n1 [Example 4, 8-chloro-2-methyl-5-(piperazin-1-yl)thieno[2,3-e][1,2,4]triazolo[1,5-c]pyrimidine] | > 10 | > 10 |
